Measured values published in article PMC4763008, “Selective Inhibition of Bakuchicin Isolated from Psoralea corylifolia on CYP1A in Human Liver Microsomes” (Evidence-based Complementary and Alternative Medicine : eCAM, 2016).
“Also recorded” adds a separate entry of the source. Like-named read-outs stand apart in the source and are kept apart here.

How the values were obtained:
[1] = target: T1, CYP2D6 (Homo sapiens, UniProt P10635); experiment: CYP inhibition, cocktail of probe substrates in pooled human liver microsomes: dextromethorphan O-demethylation; type: in vitro ADME; conditions: pooled HLMs, dextromethorphan O-deethylation, substrate 5 μM
T1 construct: each reaction was performed with 0.5 mg/mL pooled human liver microsomes; tissue Corning Gentest BD UltraPool HLM 150; host or cells: pooled human liver microsomes

[2] = target: T2, CYP2C9 (Homo sapiens, UniProt P11712); experiment: CYP inhibition, cocktail of probe substrates in pooled human liver microsomes: diclofenac 4'-hydroxylation; type: in vitro ADME; conditions: pooled HLMs, substrate 10 μM
T2 construct: each reaction was performed with 0.5 mg/mL pooled human liver microsomes; tissue Corning Gentest BD UltraPool HLM 150; host or cells: pooled human liver microsomes

[3] = target: T3, human recombinant cDNA-expressed CYP1A1 (Homo sapiens, UniProt P04798); experiment: Inhibition of phenacetin O-deethylation by human recombinant cDNA-expressed CYP1A1; type: biochemical
T3 construct: purchased Corning Gentest (Woburn, MA)
T3 sequence (P04798 1-512): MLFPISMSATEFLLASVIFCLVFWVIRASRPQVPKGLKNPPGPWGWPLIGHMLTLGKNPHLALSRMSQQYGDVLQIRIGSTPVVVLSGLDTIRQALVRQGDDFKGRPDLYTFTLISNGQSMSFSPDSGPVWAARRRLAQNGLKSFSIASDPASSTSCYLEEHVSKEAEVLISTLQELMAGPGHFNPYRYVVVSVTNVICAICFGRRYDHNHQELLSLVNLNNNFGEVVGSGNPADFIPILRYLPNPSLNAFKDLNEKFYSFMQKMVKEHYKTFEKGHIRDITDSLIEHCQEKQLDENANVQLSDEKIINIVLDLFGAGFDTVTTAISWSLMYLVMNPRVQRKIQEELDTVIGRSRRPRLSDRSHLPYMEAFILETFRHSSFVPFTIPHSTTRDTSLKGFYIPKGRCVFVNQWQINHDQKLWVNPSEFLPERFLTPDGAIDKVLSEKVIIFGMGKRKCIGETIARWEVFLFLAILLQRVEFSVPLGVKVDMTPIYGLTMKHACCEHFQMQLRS
Procedure: (§1) To confirm the selective inhibition of CYP1A by bakuchicin, 10 pmol of human recombinant cDNA-expressed CYP1A1 and CYP1A2 was incubated with bakuchicin at 0.1–50 μM and NGS for 60 min at 37°C after the addition of 80 μM phenacetin as a selective CYP1A substrate. Those were terminated by adding 100 μL acetonitrile containing 0.1% formic acid and 2.5 μL of internal standard solution (5 μM reserpine) in methanol. After mixing and centrifuging at 13,000 ×g for 12 min, a 5 μL aliquot was injected onto a C18 column for LC-MS/MS analysis. CYP1A1 and CYP1A2 activities were determined by phenacetin O-deethylation. The inhibition patterns of bakuchicin on CYP1A in human recombinant cDNA-expressed CYP1A1 and CYP1A2 were confirmed by Michaelis-Menten and secondary plot.
(§2) All measurements were performed using LC-MS/MS in multiple reaction monitoring mode. LC-MS/MS was performed using an Accela™ LC system coupled to a TSQ Vantage triple quadrupole mass spectrometer (Thermo Fisher Scientific Inc., USA) equipped with a HESI-II Spray source. Electrospray ionization was performed in positive mode at a spray voltage of 3,500 V (except for the detection of 6-hydroxy chlorzoxazone). Nitrogen was used as a sheath and auxiliary gas at optimum values of 45 and 20 (arbitrary units), respectively. Vaporizer and capillary temperatures were 150 and 300°C, respectively. For LC analysis an Inertsil® ODS-2 (3 μm, 2.1 × 150 mm) column (GL Sciences Inc., Torrance, CA) was used. The mobile phase consisted of acetonitrile (mobile phase A) and water (mobile phase B), both of which contained 0.1% formic acid, at a flow rate of 0.22 mL/min at 30°C.
(§3) All incubations were performed in duplicate, and data are presented as means. IC50 values (the concentration of inhibitor causing a 50% inhibition in enzyme activity) were obtained using percent activity versus log[I] concentration plots. Kinetic parameters were estimated by curve fitting using SigmaPlot (version 12.0, Systat Software, Inc.).

[4] = target: T4, human recombinant cDNA-expressed CYP1A2 (Homo sapiens, UniProt P05177); experiment: Inhibition of phenacetin O-deethylation by human recombinant cDNA-expressed CYP1A2; type: biochemical
T4 construct: purchased Corning Gentest (Woburn, MA)
T4 sequence (P05177 1-516): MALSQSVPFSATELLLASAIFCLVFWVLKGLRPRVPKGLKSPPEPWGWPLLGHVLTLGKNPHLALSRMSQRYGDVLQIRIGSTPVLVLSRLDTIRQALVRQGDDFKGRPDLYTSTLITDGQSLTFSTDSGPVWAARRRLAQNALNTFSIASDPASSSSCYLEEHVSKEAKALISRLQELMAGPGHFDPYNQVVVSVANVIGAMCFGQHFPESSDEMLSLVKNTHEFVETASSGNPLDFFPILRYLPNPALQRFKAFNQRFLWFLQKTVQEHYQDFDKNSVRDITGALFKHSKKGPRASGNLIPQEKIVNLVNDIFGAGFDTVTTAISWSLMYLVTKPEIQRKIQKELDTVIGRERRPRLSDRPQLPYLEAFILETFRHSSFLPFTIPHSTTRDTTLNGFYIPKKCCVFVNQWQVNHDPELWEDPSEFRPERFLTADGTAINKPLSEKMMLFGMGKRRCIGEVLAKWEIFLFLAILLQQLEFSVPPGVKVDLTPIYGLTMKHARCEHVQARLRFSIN
Procedure: as §1, §2, §3

[5] = 15 min preincubation with NADPH, read-out: IC50 With preincubation with NADPH
[6] = 15 min preincubation without NADPH, read-out: IC50 With preincubation Without NADPH
[7] = without preincubation, read-out: IC50 Without preincubation

T1 sequence (P10635 whole entry): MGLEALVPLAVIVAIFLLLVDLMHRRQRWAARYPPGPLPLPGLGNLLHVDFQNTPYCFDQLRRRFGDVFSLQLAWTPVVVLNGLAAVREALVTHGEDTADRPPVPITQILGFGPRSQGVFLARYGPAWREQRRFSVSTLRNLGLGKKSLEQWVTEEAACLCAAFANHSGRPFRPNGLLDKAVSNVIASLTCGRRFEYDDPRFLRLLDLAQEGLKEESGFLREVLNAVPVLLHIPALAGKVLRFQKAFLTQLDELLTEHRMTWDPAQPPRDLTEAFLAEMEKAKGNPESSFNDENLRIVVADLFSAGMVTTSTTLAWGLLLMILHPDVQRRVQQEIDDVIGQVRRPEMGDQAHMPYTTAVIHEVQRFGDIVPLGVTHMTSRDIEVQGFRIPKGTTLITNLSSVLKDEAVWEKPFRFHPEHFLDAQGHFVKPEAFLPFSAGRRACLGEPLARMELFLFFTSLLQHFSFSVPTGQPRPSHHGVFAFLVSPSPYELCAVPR
T2 sequence (P11712 whole entry): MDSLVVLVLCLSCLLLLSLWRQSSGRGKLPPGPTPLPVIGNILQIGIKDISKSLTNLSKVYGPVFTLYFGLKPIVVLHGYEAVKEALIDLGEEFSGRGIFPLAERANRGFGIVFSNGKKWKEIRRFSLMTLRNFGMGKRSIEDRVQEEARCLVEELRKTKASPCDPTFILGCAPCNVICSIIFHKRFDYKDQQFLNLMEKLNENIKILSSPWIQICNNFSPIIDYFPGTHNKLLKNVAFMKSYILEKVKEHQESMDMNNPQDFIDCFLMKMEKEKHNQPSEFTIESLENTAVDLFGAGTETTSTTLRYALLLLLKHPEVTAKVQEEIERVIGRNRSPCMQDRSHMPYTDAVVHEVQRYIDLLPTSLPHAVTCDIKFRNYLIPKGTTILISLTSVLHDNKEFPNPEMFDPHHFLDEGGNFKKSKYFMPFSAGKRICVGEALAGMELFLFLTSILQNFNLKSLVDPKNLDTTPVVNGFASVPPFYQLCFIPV

O=c1ccc2c(ccc3ccoc32)o1 [Bakuchicin]
IC50 [1, 5]: 15.1 µM
IC50 [1, 6]: 21.7 µM
IC50 [1, 7]: 18.2 µM
IC50 [2, 5]: > 100 µM
IC50 [2, 6]: > 100 µM
IC50 [2, 7]: > 100 µM
IC50 ([3]; recombinant CYP1A1, 80 μM phenacetin, 60 min, read-out: IC50, CYP1A1-catalyzed phenacetin O-deethylase activity): 0.2 µM
inhibition mode on CYP1A1 ([3]; recombinant CYP1A1, Lineweaver-Burk plot): competitive inhibitor; also recorded: competitive inhibition
Ki ([3]; recombinant CYP1A1, phenacetin 20, 40, 80 μM, 60 min, read-out: Ki on CYP1A1 (secondary plot)): 0.11 µM
IC50 ([4]; recombinant CYP1A2, 80 μM phenacetin, 60 min, read-out: IC50, CYP1A2-catalyzed phenacetin O-deethylase activity): 1.4 µM
inhibition mode on CYP1A2 ([4]; recombinant CYP1A2, Lineweaver-Burk plot): competitive inhibitor; also recorded: competitive inhibition
Ki ([4]; recombinant CYP1A2, phenacetin 20, 40, 80 μM, 60 min, read-out: Ki on CYP1A2 (secondary plot)): 0.32 µM
Ki on CYP1A2 relative to Ki on CYP1A1 ([4]; recombinant enzymes): 3 fold
IC50 for CYP1A2 relative to CYP1A1 ([4]; recombinant enzymes, CYP1A2 IC50 higher than CYP1A1 IC50): 7 fold
